# Results from publication PMC6270091, “GABAB-Agonistic Activity of Certain Baclofen Homologues” (Molecules, 2013).
# Entries after “also recorded” stand apart in the source; their conditions may differ. Structures can show the parent of a compound that is named as a salt.
# Key:
# [1] = biological target: T1, GABABR1b/GABABR2 receptors co-expressed with the chimeric G protein Gαq-z5 in tsA201 cells (Rattus norvegicus, UniProt Q9Z0U4); assay: GABAB agonist activity, intracellular calcium (Fluo-4) in transfected tsA201 cells; format: cell-based; settings: Ca2+ response; for EC50: agonist, tsA201 cells transfected with GABAB1b/GABAB2/Gqz5; for GABABR agonistic activity (in words): tsA201 cells
# T1 construct: expressed in transfected cells; host or cells: tsA201 cells (transformed HEK293), transient transfection with pcDNA3.1 plasmids using SuperFect
# Source text: We have previously described a robust pharmacological assay of heterodimeric GABABR1b/GABABR2 receptors co-expressed with the chimeric G protein Gαq-z5 in tsA201 cells (a transformed HEK293 cell line). Co-expression of Gαq-z5 convert the endogenous coupling to the Gαi/o signaling pathway to the Gq pathway, which generally leads to more robust assays measured as increases in inositol phosphates or intracellular calcium levels.
# Culture media, serum and antibiotics were obtained from Invitrogen (Paisley, UK). The rat GABABR plasmids and the Gαq-z5 construct were generous gifts from Dr. Janet Clark (National Institute of Health, Bethesda, MD, USA) and Dr. Bruce Conklin (University of California, San Francisco, CA, USA). The tsA201 cells were a generous gift from Dr. Penelope S. V. Jones (University of California, San Diego, CA, USA).
# One million cells were split into a 10 cm tissue culture plate and transfected the following day with 0.7 μg GABABR1b-pcDNA3.1, 3.5 μg GABABR2-pcDNA3.1 and 0.7μg Gαq-z5-pcDNA using SuperFect as a DNA carrier according to the protocol by the manufacturer (Qiagen, Hilden, Germany). The day after transfection, cells were split into one poly-D-lysine coated 96-well black-walled–clear-bottomed tissue culture plates in the same medium as mentioned above and incubated overnight. The following day the measurement of intracellular calcium was performed as follows. The media was exchanged with Hanks balanced saline solution containing 1 mM CaCl2, 1 mM MgCl2, 20 mM HEPES, 2.5 mM probencid and 4 μM Fluo-4AM (pH = 7.4). […] Cells were then washed twice with the same buffer without Fluo-4AM and finally 100 μL of the buffer was left in the wells. […] Fluorescence readings were measured for 45 s after addition of ligand and response was calculated as peak response minus basal level. […] Twenty min after application of ligand, 10 μM GABA was added to the well and fluorescence was measured as above.
# All data analysis has been carried out using GraphPad Prism version 6.0c for Mac OS X (GraphPad Software, San Diego, CA, USA). Concentration-response curves have been fitted by non-linear regression using the equation for sigmoidal concentration-response function:R = Rmin + (Rmax − Rmin)/(1 + 10 ^ (logEC50 − X)) in which X is the logarithm of the agonist concentration, R is the response, Rmax is the maximal response, Rmin is the minimal response and EC50 is the concentration giving half maximum response.
# [2] = biological target: T1, GABABR1b/GABABR2 receptors co-expressed with the chimeric G protein Gαq-z5 in tsA201 cells; assay: GABAB antagonist test, intracellular calcium (Fluo-4) against 10 μM GABA in transfected tsA201 cells; format: cell-based; settings: 1 mM concentration against 10 μM GABA
# Source text: Regarding the structure-activity relationship in the synthesized series 1a–i, it has to be mentioned that mono-substitution on the aromatic moiety attached to the 3-position of the DAVA backbone with a halogen, especially a para-chloro, is optimum for GABABR agonistic activity. The synthesized compounds which evoked GABABR agonistic activity have the following decreasing order of activity: 1a > 1e > 1f.
# TsA201 cells (a transformed human embryonic kidney (HEK) 293 cell line) were maintained at 37 °C in a humidified 5% CO2 incubator in Dulbecco’s modified Eagle medium (DMEM) supplemented with penicillin (100 U/mL), streptomycin ([…]) and 10% fetal calf serum. One million cells were split into a 10 cm tissue culture plate and transfected the following day with 0.7 μg GABABR1b-pcDNA3.1, 3.5 μg GABABR2-pcDNA3.1 and 0.7μg Gαq-z5-pcDNA using SuperFect as a DNA carrier according to the protocol by the manufacturer (Qiagen, Hilden, Germany). The day after transfection, cells were split into one poly-D-lysine coated 96-well black-walled–clear-bottomed tissue culture plates in the same medium as mentioned above and incubated overnight. The following day the measurement of intracellular calcium was performed as follows. The media was exchanged with Hanks balanced saline solution containing 1 mM CaCl2, 1 mM MgCl2, 20 mM HEPES, 2.5 mM probencid and 4 μM Fluo-4AM (pH = 7.4). The cells were incubated for 1 h at 37 °C in a humidified 5% CO2 incubator. Cells were then washed twice with the same buffer without Fluo-4AM and finally 100 μL of the buffer was left in the wells. The cell plate was then transferred to the NovoStar (BMG Labtechnologies, Offenburg, Germany) and the basal fluorescence level was adjusted to ~10,000 fluorescence units (FU) using excitation/emission wavelengths of 485–520 nm, respectively. Fluorescence readings were measured for 45 s after addition of ligand and response was calculated as peak response minus basal level. […] Twenty min after application of ligand, 10 μM GABA was added to the well and fluorescence was measured as above.
# GABAB receptors = system: GABAB receptors; parameters: method as in earlier work; settings: cited from earlier work
# T1 sequence (Q9Z0U4 1-844 isoform Q9Z0U4-3): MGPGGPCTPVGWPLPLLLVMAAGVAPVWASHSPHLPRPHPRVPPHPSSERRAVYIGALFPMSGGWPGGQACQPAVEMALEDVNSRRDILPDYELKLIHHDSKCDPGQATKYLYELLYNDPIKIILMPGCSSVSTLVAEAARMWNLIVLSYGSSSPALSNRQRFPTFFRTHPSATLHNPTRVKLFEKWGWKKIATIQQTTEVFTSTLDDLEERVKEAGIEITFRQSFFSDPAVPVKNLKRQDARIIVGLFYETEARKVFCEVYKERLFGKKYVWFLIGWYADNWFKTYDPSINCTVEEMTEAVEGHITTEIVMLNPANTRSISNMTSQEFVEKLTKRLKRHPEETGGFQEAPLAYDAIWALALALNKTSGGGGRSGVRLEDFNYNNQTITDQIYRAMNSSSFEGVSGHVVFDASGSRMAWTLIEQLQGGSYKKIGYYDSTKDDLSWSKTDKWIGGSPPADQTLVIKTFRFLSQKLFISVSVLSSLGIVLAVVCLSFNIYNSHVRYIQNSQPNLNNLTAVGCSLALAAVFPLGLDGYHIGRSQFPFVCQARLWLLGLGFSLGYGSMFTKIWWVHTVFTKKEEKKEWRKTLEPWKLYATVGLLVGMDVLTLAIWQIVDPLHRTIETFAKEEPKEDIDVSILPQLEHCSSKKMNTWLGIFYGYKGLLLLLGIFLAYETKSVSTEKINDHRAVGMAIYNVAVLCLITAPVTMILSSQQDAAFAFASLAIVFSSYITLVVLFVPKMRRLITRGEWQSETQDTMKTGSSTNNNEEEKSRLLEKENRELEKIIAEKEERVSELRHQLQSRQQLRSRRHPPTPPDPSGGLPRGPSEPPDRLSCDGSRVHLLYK
# T1 sequence (O88871 41-940 partner): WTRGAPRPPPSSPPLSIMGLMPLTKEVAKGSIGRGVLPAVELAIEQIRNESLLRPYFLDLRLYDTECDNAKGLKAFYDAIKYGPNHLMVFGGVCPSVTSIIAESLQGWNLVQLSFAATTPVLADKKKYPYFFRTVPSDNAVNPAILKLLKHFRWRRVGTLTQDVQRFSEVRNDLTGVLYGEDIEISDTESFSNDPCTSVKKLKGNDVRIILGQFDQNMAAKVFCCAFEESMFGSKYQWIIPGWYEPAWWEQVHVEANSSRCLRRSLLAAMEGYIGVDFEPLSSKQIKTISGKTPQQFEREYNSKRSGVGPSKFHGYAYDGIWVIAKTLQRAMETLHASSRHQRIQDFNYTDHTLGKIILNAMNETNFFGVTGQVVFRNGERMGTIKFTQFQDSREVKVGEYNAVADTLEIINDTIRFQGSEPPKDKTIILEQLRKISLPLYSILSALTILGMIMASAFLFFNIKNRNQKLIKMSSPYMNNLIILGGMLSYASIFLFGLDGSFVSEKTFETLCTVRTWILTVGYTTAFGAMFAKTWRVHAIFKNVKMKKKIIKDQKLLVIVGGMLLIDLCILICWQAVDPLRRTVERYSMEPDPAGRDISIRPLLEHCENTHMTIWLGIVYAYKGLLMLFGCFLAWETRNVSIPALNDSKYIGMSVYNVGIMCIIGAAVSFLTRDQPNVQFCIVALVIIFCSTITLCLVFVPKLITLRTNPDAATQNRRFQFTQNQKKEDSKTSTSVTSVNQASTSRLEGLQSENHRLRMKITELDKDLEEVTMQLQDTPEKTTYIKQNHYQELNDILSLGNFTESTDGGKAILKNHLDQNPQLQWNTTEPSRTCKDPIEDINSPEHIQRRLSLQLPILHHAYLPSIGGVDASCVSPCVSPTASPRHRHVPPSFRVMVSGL
Structure (SMILES),EC50 [1],GABABR antagonist activity [2],melting point,further results
"NCCC(CC(=O)O)c1ccc(Cl)cc1 (racemic) [Compound 1a, (R,S)-5-Amino-3-(4-chlorophenyl)pentanoic acid hydrochloride]",46 µM,,,
"COc1cccc(C(CCN)CC(=O)O)c1 (racemic) [Compound 1g, (R,S)-5-Amino-3-(3-methoxyphenyl)pentanoic acid hydrochloride]",> 300 µM,none of these compounds were effective,,
"NCCCC(C(=O)O)c1ccc(Cl)cc1 (racemic) [Compound 3, (R,S)-5-amino-2-(4-chlorophenyl)pentanoic acid]",,,,interaction with GABAB receptors (GABAB receptors): does not interact detectably
"NCCC(CC(=O)O)c1ccc(F)cc1 (racemic) [Compound 1f, (R,S)-5-Amino-3-(4-fluorophenyl)pentanoic acid hydrochloride]",170 µM,,,
"NCCC(CC(=O)O)c1ccc(Cl)cc1 (racemic) (as salt: hydrochloride) [Compound 1a, (R,S)-5-Amino-3-(4-chlorophenyl)pentanoic acid hydrochloride]",,,201 to 203 °C,
"NCCC(CC(=O)O)c1ccc(Cl)cc1Cl (racemic) [Compound 1b, (R,S)-5-Amino-3-(2,4-chlorophenyl)pentanoic acid hydrochloride]",> 300 µM,none of these compounds were effective,,GABABR agonistic activity (in words) [1]: lack of GABABR agonistic activity
"NCCC(CC(=O)O)c1ccc(Cl)c(Cl)c1 (racemic) [Compound 1e, (R,S)-5-Amino-3-(3,4-chlorophenyl)pentanoic acid hydrochloride]",130 µM,,,
"NCCC(CC(=O)O)c1ccccc1 (racemic) (as salt: hydrochloride) [Compound 1d, (R,S)-5-Amino-3-phenylpentanoic acid hydrochloride]",,,195 to 196 °C,
"NCCC(CC(=O)O)c1ccc(Cl)cc1Cl (racemic) (as salt: hydrochloride) [Compound 1b, (R,S)-5-Amino-3-(2,4-chlorophenyl)pentanoic acid hydrochloride]",,,215 to 217 °C,
"NCCC(CC(=O)O)c1ccc(F)cc1 (racemic) (as salt: hydrochloride) [Compound 1f, (R,S)-5-Amino-3-(4-fluorophenyl)pentanoic acid hydrochloride]",,,208 to 210 °C,
"Cc1ccc(C(CCN)CC(=O)O)cc1 (racemic) (as salt: hydrochloride) [Compound 1c, (R,S)-5-Amino-3-(4-methylphenyl)pentanoic acid hydrochloride]",,,204 to 206 °C,
"NCCC(CC(=O)O)c1ccccc1 (racemic) [Compound 1d, (R,S)-5-Amino-3-phenylpentanoic acid hydrochloride]",> 300 µM,none of these compounds were effective,,
"COc1cccc(C(CCN)CC(=O)O)c1 (racemic) (as salt: hydrochloride) [Compound 1g, (R,S)-5-Amino-3-(3-methoxyphenyl)pentanoic acid hydrochloride]",,,182 to 184 °C,
"CC(CCN)CC(=O)O (racemic) [Compound 1i, (R,S)-5-amino-3-methylpentanoic acid]",> 300 µM,none of these compounds were effective,164 to 165 °C,GABABR agonistic activity (in words) [1]: loss of GABABR agonistic activity; also recorded: devoid of GABABR agonistic activity
"NCCC(CC(=O)O)c1ccc(Cl)c(Cl)c1 (racemic) (as salt: hydrochloride) [Compound 1e, (R,S)-5-Amino-3-(3,4-chlorophenyl)pentanoic acid hydrochloride]",,,201 to 203 °C,
"COc1ccc(C(CCN)CC(=O)O)cc1 (racemic) (as salt: hydrochloride) [Compound 1h, (R,S)-5-Amino-3-(4-methoxyphenyl)pentanoic acid hydrochloride]",,,194 to 195 °C,
"COc1ccc(C(CCN)CC(=O)O)cc1 (racemic) [Compound 1h, (R,S)-5-Amino-3-(4-methoxyphenyl)pentanoic acid hydrochloride]",> 300 µM,none of these compounds were effective,,
"Cc1ccc(C(CCN)CC(=O)O)cc1 (racemic) [Compound 1c, (R,S)-5-Amino-3-(4-methylphenyl)pentanoic acid hydrochloride]",> 300 µM,none of these compounds were effective,,
